Assay results reported in patent US20220194918A1, “PLEUROMULIN LIPOIC ACID ESTER WITH ANTIBACTERIAL ACTIVITY AND A METHOD OF PREPARING THE SAME” (SHAANXI UNIVERSITY OF SCIENCE AND TECHNOLOGY, priority 2020, published 2022).

How the values were obtained:
Assay type in all cases: cell-based
[1] = system: multi-resistant Staphylococcus aureus 18-596; experiment: Paper diffusion drug sensitivity test, multi-resistant Staphylococcus aureus 18-596; conditions: for Zone of inhibition: Multi-resistant Staphylococcus aureus 18-596, 30 μg/tablet paper disc, LB plate, 37° C., 24 h; for inhibitory effect (in words): multi-drug resistant Staphylococcus aureus 18-596, FIGS. 1-3 and Table 1
Experimental: (§1) The antimicrobial efficacy was determined by a paper diffusion drug sensitivity test.
(§2) Experimental strains: multi-resistant Staphylococcus aureus 18-206, multi-resistant Staphylococcus aureus 18-222, multi-resistant Staphylococcus aureus 18-596. The experimental strain was identified by Huashan Hospital Affiliated to Fudan University (Institute of Antibiotic of Fudan University).
(§3) Drug sensitive paper: The drug sensitive paper is a special drug sensitive paper with a diameter of 6.35 mm and a water absorption of 0.02 mL. The control drug was vancomycin (30μg/tablet); the test drugs were pleuromulin (30 μg/tablet), lipoic acid (30 μg/tablet) and pleuromulin lipoic acid ester (30 μg/tablet).
(§4) Reagents: LB agar medium, LA broth medium, 0.5% DMSO solution.
(§5) The experimental strains were inoculated in non-selective medium and placed in air at 37° C. for 24 h. Pick a single colony that grows well and inoculate it into broth medium, incubate at 35° C.±2° C. for 6 hours, and use LA broth medium to calibrate the concentration of the bacterial solution to 0.5 Mie turbidimetric tube (1.5×10^8 CFU/mL). A bacterial suspension is obtained.
(§6) Weigh the LB dry powder, sterilize at 103.4 Kpa, 121.3° C. high-pressure steam for 15 min, and then put it in a 40° C.-50° C. water bath. Place a sterile empty plate (inner diameter 9 cm) on the surface of the ultra-clean table water table, shake and shake LB, and then pour the plate. The thickness of each plate is 3 mm to 4 mm. After the plate is cooled at room temperature, store it in the refrigerator at 2° C.-8° C. Use a sterile cotton swab to dip the bacterial solution, and evenly coat the surface of the LB plate 3 times. After inoculation of the bacterial suspension, the LB plate was dried at room temperature for 3 min to 5 min. Use sterile forceps to closely attach the antibacterial drug paper to the dish. Put the dish upside down and place it in a 37° C. incubator for 24 h. Observe the result and measure the diameter. Taking 0.5% DMSO solution as a negative control, the antibacterial activity is expressed by the diameter of the inhibition zone. The inhibition zone 17 mm, sensitive; the inhibition zone is 15 mm-16 mm, intermediary; the inhibition zone 14 mm, drug resistance.

[2] = system: multi-resistant Staphylococcus aureus 18-206; experiment: Paper diffusion drug sensitivity test, multi-resistant Staphylococcus aureus 18-206; conditions: for Zone of inhibition: Multi-resistant Staphylococcus aureus 18-206, 30 μg/tablet paper disc, LB plate, 37° C., 24 h; for inhibitory effect (in words): multi-drug resistant Staphylococcus aureus 18-206, FIGS. 1-3 and Table 1
Experimental: as §1, §2, §3, §4, §5, §6

[3] = system: multi-resistant Staphylococcus aureus 18-222; experiment: Paper diffusion drug sensitivity test, multi-resistant Staphylococcus aureus 18-222; conditions: for Zone of inhibition: Multi-resistant Staphylococcus aureus 18-222, 30 μg/tablet paper disc, LB plate, 37° C., 24 h; for inhibitory effect (in words): multi-drug resistant Staphylococcus aureus 18-222, FIGS. 1-3 and Table 1
Experimental: as §1, §2, §3, §4, §5, §6

| SMILES | Zone of inhibition [1] [mm] | inhibitory effect (in words) [1] | Zone of inhibition [2] [mm] | inhibitory effect (in words) [2] | Zone of inhibition [3] [mm] | inhibitory effect (in words) [3] | diameter of bacteriostatic zone ([1]; multidrug resistant Staphylococcus aureus 18-596) |
| --- | --- | --- | --- | --- | --- | --- | --- |
| O=C(O)CCCC[C@@H]1CCSS1 (racemic) [Lipoic acid] | 0 | no inhibitory effect | 0 | no inhibitory effect | 0 | no inhibitory effect |  |
| C=C[C@]1(C)C[C@@H](OC(=O)COC(=O)CCCCC2CCSS2)[C@]2(C)CC[C@@H](C)[C@@]3(CCC(=O)[C@@H]23)[C@@H](C)[C@@H]1O (stereo partly drawn) [Pleuromulin lipoic acid ester, 2-(((3aS,4R,5S,6S, 8R,9R,9aR,12R)-5-hydroxy-4,6,9,12-tetramethyl-1-oxo-6-vinyldecahydro-3 a, 9-propanocyclopenta[8]annulen-8-yl)oxy)-2-oxoethyl 5-(1,2-dithiolan-3-yl)pentanoate] | 20 | strong inhibitory effects | 16 | strong inhibitory effects | 16 | strong inhibitory effects | up to 21 mm |
| C=C[C@]1(C)C[C@@H](OC(=O)CO)[C@]2(C)[C@H](C)CC[C@]3(CCC(=O)[C@H]32)[C@@H](C)[C@@H]1O [Pleuromulin] | 0 | no inhibitory effect | 0 | no inhibitory effect | 0 | no inhibitory effect |  |
| CN[C@H](CC(C)C)C(=O)N[C@H]1C(=O)N[C@@H](CC(N)=O)C(=O)N[C@H]2C(=O)N[C@H]3C(=O)N[C@H](C(=O)N[C@H](C(=O)O)c4cc(O)cc(O)c4-c4cc3ccc4O)[C@H](O)c3ccc(c(Cl)c3)Oc3cc2cc(c3O[C@@H]2O[C@H](CO)[C@@H](O)[C@H](O)[C@H]2O[C@H]2C[C@](C)(N)[C@H](O)[C@H](C)O2)Oc2ccc(cc2Cl)[C@H]1O [Vancomycin] | 21 |  | 17 |  | 18 |  |  |
